We go through seven cell lines from the supplement of paper PMC10307832.

What all share (test): relative viability (nuclei count vs DMSO), 5 days (fraction); higher = more cells survive
Compound in the experiment “Bleomycin + Crizotinib”: CC1=C(N=C(N=C1N)[C@H](CC(=O)N)NC[C@@H](C(=O)N)N)C(=O)N[C@@H]([C@H](C2=CN=CN2)OC3C(C(C(C(O3)CO)O)O)OC4C(C(C(C(O4)CO)O)OC(=O)N)O)C(=O)N[C@H](C)[C@H]([C@H](C)C(=O)N[C@@H]([C@@H](C)O)C(=O)NCCC5=NC(=CS5)C6=NC(=CS6)C(=O)NCCC[S+](C)C)O [Bleomycin] + C[C@@H](Oc1cc(-c2cnn(C3CCNCC3)c2)cnc1N)c1c(Cl)ccc(F)c1Cl [Crizotinib] (partner 1 µM)
The settings on record: main component drawn. In short, it runs like this: (§1)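 Nuclei were stained with Hoechst during a one-step fixation (final 0.05% Triton X-100, 1% formaldehyde, 1 ug/ml Hoechst) carried out 5 days after dosing, then counted on 4× images. The cells, lung cancer lines in 1536-well plates, had been dosed by pin tool the day after seeding with one drug alone or a fixed anchor-drug dose plus five library-drug doses (not always all listed) in √10 steps. Relative viability is the nuclei count in treated wells divided by that in vehicle wells, and each value is the median of duplicate plates.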

Compound in the experiment “Etoposide + Navitoclax”: COc1cc([C@@H]2c3cc4c(cc3[C@@H](O[C@@H]3O[C@@H]5CO[C@@H](C)O[C@H]5[C@H](O)[C@H]3O)[C@H]3COC(=O)[C@H]23)OCO4)cc(OC)c1O [Etoposide] + CC1(C)CCC(c2ccc(Cl)cc2)=C(CN2CCN(c3ccc(C(=O)NS(=O)(=O)c4ccc(N[C@H](CCN5CCOCC5)CSc5ccccc5)c(S(=O)(=O)C(F)(F)F)c4)cc3)CC2)C1 [Navitoclax] (partner 0.5 µM)
The gist of the method: as §1

Compound in the experiment “Etoposide + Luminespib”: COc1cc([C@@H]2c3cc4c(cc3[C@@H](O[C@@H]3O[C@@H]5CO[C@@H](C)O[C@H]5[C@H](O)[C@H]3O)[C@H]3COC(=O)[C@H]23)OCO4)cc(OC)c1O [Etoposide] + CCNC(=O)c1noc(-c2cc(C(C)C)c(O)cc2O)c1-c1ccc(CN2CCOCC2)cc1 [Luminespib] (partner 0.01 µM)
In short, it runs like this: as §1

Compound in the experiment “Etoposide + Dasatinib”: COc1cc([C@@H]2c3cc4c(cc3[C@@H](O[C@@H]3O[C@@H]5CO[C@@H](C)O[C@H]5[C@H](O)[C@H]3O)[C@H]3COC(=O)[C@H]23)OCO4)cc(OC)c1O [Etoposide] + Cc1nc(Nc2ncc(C(=O)Nc3c(C)cccc3Cl)s2)cc(N2CCN(CCO)CC2)n1 [Dasatinib] (partner 0.075 µM)
The gist of the method: as §1

Take NCI-H2087: the relative viability was 0.617 with Bleomycin + Crizotinib (first compound 0.01 µM); 0.771 with Bleomycin + Crizotinib (first compound 0.03162 µM); 0.735 with Bleomycin + Crizotinib (first compound 0.1 µM); 0.303 with Bleomycin + Crizotinib (first compound 0.3162 µM); 0.274 with Bleomycin + Crizotinib (first compound 1 µM); 1.05 in the experiment with Etoposide + Navitoclax (first compound 0.03162 µM). Besides, the relative viability in the experiment with Etoposide + Navitoclax (first compound 0.1 µM) stood at 0.941; with Etoposide + Navitoclax (first compound 0.3162 µM), 0.727; in the experiment with Etoposide + Navitoclax (first compound 1 µM) it was 0.264; in the experiment with Etoposide + Luminespib (first compound 0.01 µM), 0.153; with Etoposide + Luminespib (first compound 0.03162 µM) it was 0.162; with Etoposide + Luminespib (first compound 0.1 µM), 0.165. For the same cell line, the relative viability in the experiment with Etoposide + Luminespib (first compound 0.3162 µM) stood at 0.164; in the experiment with Etoposide + Luminespib (first compound 1 µM), 0.155; with Etoposide + Dasatinib (first compound 0.01 µM) it was 0.672; in the experiment with Etoposide + Dasatinib (first compound 0.03162 µM), 1.06; in the experiment with Etoposide + Dasatinib (first compound 0.1 µM), 0.653; in the experiment with Etoposide + Dasatinib (first compound 0.3162 µM), 0.553. The relative viability in the experiment with Etoposide + Dasatinib (first compound 1 µM) was 0.166.
For the cell line NCI-H2126, the relative viability with Bleomycin + Crizotinib (first compound 0.01 µM) worked out at 0.932; with Bleomycin + Crizotinib (first compound 0.03162 µM) it was 1.1; with Bleomycin + Crizotinib (first compound 0.1 µM), 0.982; in the experiment with Bleomycin + Crizotinib (first compound 0.3162 µM) it was 0.948; with Bleomycin + Crizotinib (first compound 1 µM), 0.801; with Etoposide + Navitoclax (first compound 0.01 µM) it was 0.893. Also, the relative viability with Etoposide + Navitoclax (first compound 0.03162 µM) was 0.917; with Etoposide + Navitoclax (first compound 0.1 µM) it was 0.49; with Etoposide + Navitoclax (first compound 0.3162 µM), 0.769; with Etoposide + Navitoclax (first compound 1 µM) it was 0.448; in the experiment with Etoposide + Luminespib (first compound 0.01 µM), 0.927; with Etoposide + Luminespib (first compound 0.03162 µM), 0.877. The relative viability with Etoposide + Luminespib (first compound 0.1 µM) was 0.545; in the experiment with Etoposide + Luminespib (first compound 0.3162 µM) it was 0.622; with Etoposide + Luminespib (first compound 1 µM), 0.33; in the experiment with Etoposide + Dasatinib (first compound 0.01 µM), 0.668; in the experiment with Etoposide + Dasatinib (first compound 0.03162 µM), 0.568; with Etoposide + Dasatinib (first compound 0.1 µM), 0.434. Besides, the relative viability in the experiment with Etoposide + Dasatinib (first compound 0.3162 µM) worked out at 0.485; in the experiment with Etoposide + Dasatinib (first compound 1 µM) it was 0.244.
In the case of NCI-H2170, the relative viability in the experiment with Bleomycin + Crizotinib (first compound 0.01 µM) is 0.996; in the experiment with Bleomycin + Crizotinib (first compound 0.03162 µM), 1.19; with Bleomycin + Crizotinib (first compound 0.1 µM), 1.12; with Bleomycin + Crizotinib (first compound 0.3162 µM), 0.662; in the experiment with Bleomycin + Crizotinib (first compound 1 µM) it was 0.624; with Etoposide + Navitoclax (first compound 0.01 µM), 0.625. The relative viability with Etoposide + Navitoclax (first compound 0.03162 µM) stood at 0.728; with Etoposide + Navitoclax (first compound 0.3162 µM) it was 0.525; in the experiment with Etoposide + Navitoclax (first compound 1 µM) it was 0.399; with Etoposide + Luminespib (first compound 0.01 µM) it was 0.714; with Etoposide + Luminespib (first compound 0.03162 µM), 0.874; in the experiment with Etoposide + Luminespib (first compound 0.1 µM), 0.273. Moreover, the relative viability with Etoposide + Luminespib (first compound 0.3162 µM) turned out to be 0.585; in the experiment with Etoposide + Luminespib (first compound 1 µM), 0.452; with Etoposide + Dasatinib (first compound 0.01 µM), 0.678; with Etoposide + Dasatinib (first compound 0.03162 µM) it was 0.658; in the experiment with Etoposide + Dasatinib (first compound 0.1 µM), 0.353; in the experiment with Etoposide + Dasatinib (first compound 0.3162 µM), 0.619. Further, the relative viability with Etoposide + Dasatinib (first compound 1 µM) came to 0.401.
As for NCI-H2228, the relative viability was 0.393 in the experiment with Bleomycin + Crizotinib (first compound 0.01 µM); 0.362 in the experiment with Bleomycin + Crizotinib (first compound 0.03162 µM); 0.488 with Bleomycin + Crizotinib (first compound 0.1 µM); 0.318 with Bleomycin + Crizotinib (first compound 0.3162 µM); 0.327 with Bleomycin + Crizotinib (first compound 1 µM); 0.842 with Etoposide + Navitoclax (first compound 0.01 µM). Also, the relative viability with Etoposide + Navitoclax (first compound 0.03162 µM) turned out to be 0.934; with Etoposide + Navitoclax (first compound 0.1 µM) it was 0.849; in the experiment with Etoposide + Navitoclax (first compound 0.3162 µM), 0.473; with Etoposide + Navitoclax (first compound 1 µM), 0.138; with Etoposide + Luminespib (first compound 0.01 µM) it was 0.159; with Etoposide + Luminespib (first compound 0.03162 µM), 0.141. For the same cell line, the relative viability with Etoposide + Luminespib (first compound 0.1 µM) was found to be 0.154; in the experiment with Etoposide + Luminespib (first compound 0.3162 µM), 0.117; in the experiment with Etoposide + Luminespib (first compound 1 µM), 0.147; in the experiment with Etoposide + Dasatinib (first compound 0.01 µM), 0.61; with Etoposide + Dasatinib (first compound 0.03162 µM), 0.473; in the experiment with Etoposide + Dasatinib (first compound 0.1 µM), 0.306. Moreover, the relative viability with Etoposide + Dasatinib (first compound 0.3162 µM) came out at 0.418; with Etoposide + Dasatinib (first compound 1 µM), 0.131.
For the cell line NCI-H2347, the relative viability in the experiment with Bleomycin + Crizotinib (first compound 0.01 µM) worked out at 0.707; with Bleomycin + Crizotinib (first compound 0.03162 µM), 0.677; with Bleomycin + Crizotinib (first compound 0.1 µM) it was 0.744; in the experiment with Bleomycin + Crizotinib (first compound 0.3162 µM), 0.362; in the experiment with Bleomycin + Crizotinib (first compound 1 µM), 0.515; with Etoposide + Navitoclax (first compound 0.01 µM), 0.809. Besides, the relative viability is 0.626 with Etoposide + Navitoclax (first compound 0.03162 µM); 0.405 with Etoposide + Navitoclax (first compound 0.1 µM); 0.354 with Etoposide + Navitoclax (first compound 0.3162 µM); 0.28 with Etoposide + Navitoclax (first compound 1 µM); 0.498 with Etoposide + Luminespib (first compound 0.01 µM); 0.407 with Etoposide + Luminespib (first compound 0.03162 µM). Also, the relative viability worked out at 0.299 with Etoposide + Luminespib (first compound 0.1 µM); 0.237 with Etoposide + Luminespib (first compound 0.3162 µM); 0.285 with Etoposide + Luminespib (first compound 1 µM); 0.365 with Etoposide + Dasatinib (first compound 0.01 µM); 0.294 in the experiment with Etoposide + Dasatinib (first compound 0.03162 µM); 0.293 with Etoposide + Dasatinib (first compound 0.1 µM). For the same cell line, the relative viability with Etoposide + Dasatinib (first compound 0.3162 µM) was 0.255; with Etoposide + Dasatinib (first compound 1 µM) it was 0.249.
Consider NCI-H2405, for which the relative viability with Bleomycin + Crizotinib (first compound 0.01 µM) is 0.695; with Bleomycin + Crizotinib (first compound 0.03162 µM), 0.8; with Bleomycin + Crizotinib (first compound 0.1 µM) it was 0.713; with Bleomycin + Crizotinib (first compound 0.3162 µM), 0.45; with Bleomycin + Crizotinib (first compound 1 µM), 0.372; with Etoposide + Navitoclax (first compound 0.01 µM) it was 0.801. Further, the relative viability came out at 0.912 with Etoposide + Navitoclax (first compound 0.03162 µM); 0.532 in the experiment with Etoposide + Navitoclax (first compound 0.1 µM); 0.513 in the experiment with Etoposide + Navitoclax (first compound 0.3162 µM); 0.187 with Etoposide + Navitoclax (first compound 1 µM); 0.646 in the experiment with Etoposide + Luminespib (first compound 0.01 µM); 0.65 in the experiment with Etoposide + Luminespib (first compound 0.03162 µM). Moreover, the relative viability with Etoposide + Luminespib (first compound 0.1 µM) amounted to 0.949; in the experiment with Etoposide + Luminespib (first compound 0.3162 µM), 0.664; in the experiment with Etoposide + Luminespib (first compound 1 µM) it was 0.301; in the experiment with Etoposide + Dasatinib (first compound 0.01 µM), 0.219; with Etoposide + Dasatinib (first compound 0.03162 µM), 0.23; in the experiment with Etoposide + Dasatinib (first compound 0.1 µM), 0.239. Also, the relative viability in the experiment with Etoposide + Dasatinib (first compound 0.3162 µM) amounted to 0.197; with Etoposide + Dasatinib (first compound 1 µM) it was 0.199.
With NCI-H3122, the relative viability in the experiment with Bleomycin + Crizotinib (first compound 0.01 µM) came to 0.253; with Bleomycin + Crizotinib (first compound 0.03162 µM), 0.271; with Bleomycin + Crizotinib (first compound 0.1 µM) it was 0.305; with Bleomycin + Crizotinib (first compound 0.3162 µM), 0.214; with Bleomycin + Crizotinib (first compound 1 µM), 0.253; with Etoposide + Navitoclax (first compound 0.01 µM), 1.05. The relative viability with Etoposide + Navitoclax (first compound 0.03162 µM) worked out at 1.04; with Etoposide + Navitoclax (first compound 0.1 µM), 1.05; with Etoposide + Navitoclax (first compound 0.3162 µM) it was 0.877; with Etoposide + Navitoclax (first compound 1 µM), 0.477; in the experiment with Etoposide + Luminespib (first compound 0.01 µM) it was 0.072; in the experiment with Etoposide + Luminespib (first compound 0.03162 µM), 0.0992. In addition, the relative viability was 0.0664 in the experiment with Etoposide + Luminespib (first compound 0.1 µM); 0.116 with Etoposide + Luminespib (first compound 0.3162 µM); 0.076 with Etoposide + Luminespib (first compound 1 µM); 0.749 with Etoposide + Dasatinib (first compound 0.01 µM); 0.775 with Etoposide + Dasatinib (first compound 0.03162 µM); 0.112 in the experiment with Etoposide + Dasatinib (first compound 0.1 µM). Moreover, the relative viability in the experiment with Etoposide + Dasatinib (first compound 0.3162 µM) came out at 0.817; with Etoposide + Dasatinib (first compound 1 µM), 0.223.
